Measurements taken from patent publication US7968554B2, “Pyrazolo[3,4-d]pyrimidine derivatives” (Hoffman-La Roche Inc., priority 2007, dated 2011).

Target: T1, b-Raf wild-type (Homo sapiens, UniProt P15056)
T1 construct: recombinant human b-Raf residues 416-end with N-terminal GST-tag; purchased Upstate 14-530M; host or cells: baculovirus, Sf21 insect cells
Assay: b-Raf wild-type HTRF assay with 6H-MEK as substrate (dose response)
Type: biochemical
Details: kinase enzyme inhibition, 6H-MEK substrate, read-out: bRaf wild-type IC50
Experimental: Kinase Enzyme Inhibition Assay (IC50)
b-Raf Wild-Type HTRF Assay With 6H-MEK as Substrate (Dose Response)
The assay utilizes 6H-MEK as the substrate. Upon b-Raf WT phosphorylation, phosphorylated 6H-MEK is detected with rabbit anti-phospho-MEK1/2, Eu-labeled anti-rabbit, and APC-labeled anti-6H antibodies.
Reagents and Instruments:
• Enzyme: recombinant human b-Raf residues 416-end with N-terminal GST-tag from Upstate; (expressed by baculovirus in Sf21 insect cells), 0.26 mg/mL (3.87 μM assuming a molecular weight of 67.2 kD) Cat. #14-530M, Lot #25502AU, stored at −80° C. • Substrate: WT full-length 6H-MEK, 4.94 mg/mL (154.4 μM assuming a MW of 32 kD) stored at −15° C. • Antibodies: Rabbit (α-P-(Ser 217/221)-MEK-1/2 Ab (from Cell Signaling, Cat. #9121B, Lot 14); Eu-(α-rabbit IgG (from Wallac, Cat. #AD0083, Lot 318663, 710 ug/mL, 4.4 μM); (α-6H-SureLight-APC (from Martek, Cat. #AD0059H, Lot E012AB01, 3.03 μM). • Reader: Envision from PerkinElmer, HTRF reading mode with 412 mirror • Assay Plate: Matrix all-black polypropylene plates (Cat. #4344) • Others: Weidman 384 polypropylene plates (REMP) for compound plate. Assay Procedure: • (1) Prepare Kinase Assay Buffer (KAB): 50 mM HEPES (HyClone) pH7, 10 mM MgCl2, 1 mM DTT, 0.1 mM […], and 0.3 mg/ml BSA. • (2) Prepare 6H-MEK (150 nM) in KAB. Add 12 μL/well to the assay plate. • (3) Prepare ATP (66 μM) in KAB. • (4) Dilute compounds to 2.4 mM and any positive controls to 480 μM in DMSO. Perform 10-point 3× dilution in DMSO. Withdraw 2.5 μL/well of DMSO solution and add to 27.5 μL/well ATP solution in (3). • (5) Mix, then add 6 μL/well of solution in (4) to the assay plate for a DMSO concentration of 2.1% during MEK phosphorylation. • (6) Prepare b-Raf WT (100 μM) in KAB. • (7) Add 6 μL/well of KAB in columns 1-2 and 6 μL/well of b-Raf WT in columns 3-24. • (8) Incubate at 37° C. for 30 min. • (9) Prepare rabbit (α-P-(Ser 217/221 )-MEK-1/2 Ab (1:200 from stock) in AB1: 50 mM HEPES pH7, 0.2 mg/ml BSA, and 43 mM EDTA. • (10) To stop reaction, add 6 μL/well of solution from (9) to the assay plate and incubate at 37° C. for 30 min. • (11) Prepare Eu-(α-rabbit IgG (9 nM) and (α-6H-SureLight-APC (180 nM) in AB2: 50 mM HEPES pH7 and 0.2 mg/mL BSA. • (12) Add 6 μL/well of solution from (11) to the assay plate. • (13) For determining the spectrum cross talk factor, prepare 2 samples following steps (1) to (10). For the blank sample, add 6 μL/well of AB2. For the cross talk factor sample, add 6 μL/well of Eu-anti rabbit IgG (9 nM). • (14) Incubate at room temperature for 1.5 hours. • (15) Read HTRF signals at 615 nm and 665 nm on the Envision. Normalize HTRF signals after spectrum cross-talk correction. b-Raf V600E Mutant HTRF Assay With 6H-MEK as Substrate (Dose Response) Assay Principle: […]

T1 sequence (P15056 416-766 limits assumed): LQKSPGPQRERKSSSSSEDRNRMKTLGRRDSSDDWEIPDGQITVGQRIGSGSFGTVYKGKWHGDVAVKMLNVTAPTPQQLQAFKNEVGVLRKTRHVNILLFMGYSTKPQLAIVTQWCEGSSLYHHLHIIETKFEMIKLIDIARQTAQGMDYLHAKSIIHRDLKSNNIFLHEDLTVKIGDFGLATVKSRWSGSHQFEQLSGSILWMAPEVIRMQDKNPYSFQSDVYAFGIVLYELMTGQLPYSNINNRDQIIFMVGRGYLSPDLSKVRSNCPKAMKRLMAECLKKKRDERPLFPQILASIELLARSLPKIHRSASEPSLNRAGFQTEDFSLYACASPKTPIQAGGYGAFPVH

SMILES | IC50 [µM]
Cn1nc(COc2cccc(OCc3ccccc3)c2)c2c(N)ncnc21 [Example 7, 3-(3-Benzyloxy-phenoxymethyl)-1-methyl-1H-pyrazolo[3,4-d]pyrimidin-4-ylamine] | > 10
Cc1ccc(NC(=O)c2ccc(NCCO)c(Cl)c2)cc1OCc1nn(C)c2ncnc(N)c12 [Example 9, N-[3-(4-Amino-1-methyl-1H-pyrazolo[3,4-d]pyrimidin-3-ylmethoxy)-4-methyl-phenyl]-3-chloro-4-(2-hydroxy-ethylamino)-benzamide] | < 10
Cc1ccc(NC(=O)c2cccc(Cl)c2)cc1OCc1nn(C)c2ncnc(N)c12 [Example 11, N-[3-(4-Amino-1-methyl-1H-pyrazolo[3,4-d]pyrimidin-3-ylmethoxy)-4-methyl-phenyl]-3-chloro-benzamide] | < 10
Cc1noc(-c2ccc(C)c(OCc3nn(C)c4ncnc(N)c34)c2)n1 [Example 13, 4-Amino-1-1-methyl-3-[2-methyl-5-(3-methyl-[1,2,4]oxadiazol-5-yl)-phenoxymethyl]-1H-pyrazolo[3,4-d]pyrimidine] | > 10
Cc1ccc(OCc2ccccc2)cc1OCc1nn(C)c2ncnc(N)c12 [Example 15, 3-(5-Benzyloxy-2-methyl-phenoxymethyl)-1-methyl-1H-pyrazolo[3,4-d]pyrimidin-4-ylamine] | < 10
Cc1ccc(C(=O)Nc2ccc(Cl)cc2)cc1OCc1nn(C)c2ncnc(N)c12 [Example 17, 3-(4-Amino-1-methyl-1H-pyrazolo[3,4-d]pyrimidin-3-ylmethoxy)-N-(4-chloro-phenyl)-4-methyl-benzamide] | < 10
Cc1ccc(OCc2ccc(Cl)cc2)cc1OCc1nn(C)c2ncnc(N)c12 [Example 19, 3-[5-(4-Chloro-benzyloxy)-2-methyl-phenoxymethyl]-1-methyl-1H-pyrazolo[3,4-d]pyrimidin-4-ylamine] | < 10
Cc1nnc(-c2ccc(C)c(OCc3nn(C)c4ncnc(N)c34)c2)o1 [Example 21, 1-Methyl-3-[2-methyl-5-(5-methyl-[1,3,4]oxadiazol-2-yl)-phenoxymethyl]-1H-pyrazolo[3,4-d]pyrimidin-4-ylamine] | > 10
